{"source": "patent US20110020272A1", "about": "“COMBINATION THERAPY FOR TREATING HEPATITIS VIRAL INFECTION” (priority 2009, published 2011)", "key": {"[1]": {"test_system": "Luc-ubi-neo/ET Replicon cells", "assay": "Cytotoxicity in Replicon cells", "assay_type": "cell-based, human", "details": "750 nM PI and 0.5 U/ml IFN", "description": "Luc-ubi-neo/ET-cells were seeded and incubated with PI and IFN (Roferon A, Roche) for 24 hours on the following day. […] After a 24 hour combined incubation, the medium was changed and cells were incubated for another 48 hours with PI alone. After these 3 days of incubation, HCV RNA replication was determined with respect to the non-treated control."}, "[2]": {"test_system": "sub-genomic HCV Con 1 isolate in Luc-ubi-neo/ET Replicon cells", "assay": "HCV RNA replication in Luc-ubi-neo/ET Replicon cells, combined/sequential PI and IFN", "assay_type": "cell-based", "experimental": "Replicon cells are in general Luc-ubi-neo/ET Replicon cells, which are derived from Huh7 cells and which harbor a sub-genomic HCV Con 1 isolate with a luciferase reporter gene. These so-called Replicon cells allow for in vitro screening of antiviral substances by autonomous HCV RNA replication.\nAfter a 24 hour combined incubation, the medium was changed and cells were incubated for another 48 hours with PI alone. After these 3 days of incubation, HCV RNA replication was determined with respect to the non-treated control."}, "[3]": {"details": "PI and IFN 24 h, subsequently PI alone 48 h, 750 nM PI and 0.5 U/ml IFN"}}, "data": [{"smiles": "O=C1CN(N=C[C@H](Cc2ccccc2)NC(=O)[C@H](Cc2c[nH]c3ccccc23)NC(=O)[C@H](Cc2c[nH]c3ccccc23)NC(=O)OCc2ccccc2)C(=O)N1", "note": "[S-2209, S,S,S-[1-[1-[1-Benzyl-2-(2,4-dioxo-imidazolidin-1-ylimino)-ethylcarbamoyl]-2-(1H-indol-3-yl)-ethylcarbamoyl]-2-(1H-indol-3-yl)-ethyl]-carbamic acid benzyl ester]", "values": [{"measurement": "cytotoxicity", "setting": "[1]", "result": "no cytotoxicity is observed"}, {"measurement": "basal replication (HCV RNA replication)", "setting": "[2]; [3]", "result": "approximately 10%"}, {"measurement": "inhibition of RNA replication", "setting": "[2]; [3]", "result": 90, "unit": "%"}, {"measurement": "effect of combination of PI and IFN on HCV-bearing cells", "setting": "[2]; combined or sequential treatment", "result": "synergistic effect"}, {"measurement": "inhibition of HCV RNA replication", "setting": "[2]; initial experiments, IFN 0.5 U/ml, PI 500-1000 nM", "result": "only a low inhibition"}]}]}
